Reference: US10159685B2, “Vascular calcification” (Cambridge Enterprise Limited, priority 2016, dated 2018)
Where two headings read alike, the source gives them in different places. Marks after values point to notes of the source that are not given here.

Experiments:
Type in all cases: cell-based
[1] = test system: human vascular smooth muscle cells (hVSMCs); test: o-Cresolphthalein Ca2+ assay, hVSMC Ca/P calcification model (Examples 7-9); settings: for Extracellular matrix calcification (summary statement): bovine cell and human cell in vitro vascular calcification model; for Normalised calcium levels (mass of calcium per mass of protein, FIG. 22) / Inhibition of calcification, normalised results (FIG. 27): hVSMCs, 8 days; for Normalised calcium levels (mass of calcium per mass of protein, FIG. 22): 3 μM; for Inhibition of calcification, normalised results (FIG. 27): concentrations between 0.05 μM and 3 μM
Method: (§1) Primary hVSMCs were cultured in M199 media containing FBS (M199/5% FBS). They were plated at a known cell density, allowed to grow for 24 hours and then treated with control (DMSO only) or calcification media (DMSO containing 2.7 mM Calcium+2.5 mM phosphate)+/−inhibitors. After 6 days, calcification was assessed using the o-Cresolphthalein assay for quantification of Ca^2+ deposition and a BioRad protein assay for protein content.
Medium+/−inhibitors was exchanged every 2-3 days.
as §1, with “8” for “6”, “using” for “using the”
All of the compounds tested were used at a concentration of 3 μM. Medium+/−inhibitors was exchanged every 2-3 days.
as §1, with “phosphate)+/−compounds.” for “phosphate)+/−inhibitors.”, “8” for “6”, “using” for “using the”
These concentrations were chosen to mimic the systemic concentrations of these drugs following patient dosing according to the dose schedule in the prescribing information for each drug. Medium+/−inhibitors was exchanged every 2-3 days.

[2] = test system: human monocyte-macrophages (HMMs); test: MTT toxicity assay, HMMs, seven days (Example 3); settings: 7 days; for Cell viability by MTT, percent of control: mean of three experiments; for Toxicity to HMMs (in words): at a concentration of 100 μM
Method: A similar set of toxicity experiments was performed with human monocyte-macrophages (HMMs).

[3] = test system: bovine vascular smooth muscle cells (bVSMCs); test: o-Cresolphthalein Ca2+ assay, bVSMC GAD calcification model (Examples 4 and 5); settings: GAD-treated bVSMCs, 10 μM, 7 d
Method: For the bVSMCs a GAD medium (10 mM β-glycerophosphate/0.1 mM L-ascorbic acid-2-phosphate/10 nM dexamethasone) model was used to induce mineralization in bVSMCs. Accordingly, cells were seeded in tissue culture plates using M199/20% FCS culture medium and cultured overnight. The next day, cells were treated either with medium only (M199/5% FBS)+/−inhibitors, or with the GAD-medium (10 mM β-glycerophosphate/0.1 mM L-ascorbic acid-2-phosphate/[…] dexamethasone)+/−inhibitors.
Medium+/−inhibitors was exchanged every 2-3 days. […]
The o-Cresolphthalein assay is a spectrophotometric method for measuring Ca^2+-concentrations in cell/tissue lysates. Following the calcification experiments, cells are briefly washed to remove medium and 100 […]1 of 0.1 N HCl is added to each well to dissolve any mineral deposits. Then, the Ca^2+-concentration of the samples is measured spectrophotometrically (at 570 nm) in the o-cresolphthalein assay with the help of a CaCl2 standard curve in a concentration range of ˜0.02-270 µg Ca^2+/ml.
The commercial BioRad DC protein assay is based on the Lowry method, aka reaction of proteins with a copper-tartrate complex and subsequent reaction with Folin's reagent. Following the calcification experiment, cells are briefly washed to remove medium and 100 µl of solubilisation solution (0.1 M NaOH/1% SDS/DIW) is added to each well to lyse the cells. The protein concentrations of the lysates are subsequently determined in the BioRad DC assay as per supplier's instructions using BSA (bovine serum albumin) as standard.
The in vitro model is the same as the model used in example 4; bovine vascular smooth muscle cells (bVSMCs) cultured so that they produce extracellular matrix, with the addition of the GAD medium (10 mM β-glycerophosphate/0.1 mM L-ascorbic acid-2-phosphate/10 nM dexamethasone).
As above, cells were treated either with medium only (“no-additions”; NA)+/−inhibitors, or with the GAD-medium+/−inhibitors. The inhibitors used were PJ34 and minocyclin (MC) at 10 μM, 1 μM and 0.1 μM.
The methodology was the same as that described in example 4.

[4] = test system: bovine vascular smooth muscle cells (bVSMCs); settings: 7 days; for Cell viability of bVSMCs after seven days (MTT signal, relative to control): mean of three experiments; for Toxicity to bVSMCs (MTT assay, in words): at the concentrations tested (0.5 to 100 μM)
Method: The toxicity of the identified compounds to bovine VSMCs was measured using the MTT assay, which measures the activity of dehydrogenase enzymes of live cells. This assay can pick up both cell death and proliferation.
Bovine VSMCs were seeded in 96 well plates and cultured in M199/20% FCS for 1 day. Then, the cells were incubated with inhibitor concentrations from 0.5 to 100 μM (in M199 medium+5% FBS). The cells were incubated with the inhibitors for 7 days; every 2-3 days the medium −/+inhibitors was exchanged. Then, the MTT assay was performed. The stock vehicle DMSO was tested at corresponding concentrations to the inhibitors at 0.1% DMSO or less.

SMILES	Extracellular matrix calcification (summary statement) [1]	Normalised calcium levels (mass of calcium per mass of protein, FIG. 22) [1]	Inhibition of calcification, normalised results (FIG. 27) [1]	Cell viability by MTT, percent of control ([2]; 0.5 uM)	Cell viability by MTT, percent of control ([2]; 1 uM)	Cell viability by MTT, percent of control ([2]; 2 uM)	Cell viability by MTT, percent of control ([2]; 5 uM)	Cell viability by MTT, percent of control ([2]; 10 uM)	Cell viability by MTT, percent of control ([2]; 20 uM)	Cell viability by MTT, percent of control ([2]; 50 uM)	Cell viability by MTT, percent of control ([2]; 100 uM)	Toxicity to HMMs (in words) [2]	Calcium levels (mass of calcium, FIG. 7B) compared to no inhibitors [3]	Normalised calcium levels (mass of calcium per mass of protein, FIG. 9B) [3]	Cell viability of bVSMCs after seven days (MTT signal, relative to control) ([4]; 0.5 uM)	Cell viability of bVSMCs after seven days (MTT signal, relative to control) ([4]; 1 uM)	Cell viability of bVSMCs after seven days (MTT signal, relative to control) ([4]; 2 uM)	Cell viability of bVSMCs after seven days (MTT signal, relative to control) ([4]; 5 uM)	Cell viability of bVSMCs after seven days (MTT signal, relative to control) ([4]; 10 uM)	Cell viability of bVSMCs after seven days (MTT signal, relative to control) ([4]; 20 uM)	also measured
CNCc1ccc(-c2[nH]c3cc(F)cc4c3c2CCNC4=O)cc1 [rucaparib]	significantly reduce extracellular matrix calcification	particularly effective																			
C[C@]1(c2nc3c(C(N)=O)cccc3[nH]2)CCCN1 [veliparib]	significantly reduce extracellular matrix calcification	particularly effective	inhibit calcification significantly and repeatedly																		
Cn1ncnc1[C@H]1c2n[nH]c(=O)c3cc(F)cc(c23)N[C@@H]1c1ccc(F)cc1 [talazoparib]	significantly reduce extracellular matrix calcification																				
CC(=O)CCCCn1c(=O)c2c(ncn2C)n(C)c1=O [Pentoxifylline, pentoxifylline]			do not inhibit calcification	98.73	90.57	91.92	107.27	88.35	93.54	89.28	89.64	relatively innocuous	no effect	slightly lower calcium levels	97.68	95.91	92.19*	91.33*	91.77*	92.43*	Cell viability of bVSMCs after seven days (MTT signal, relative to control) ([4]; 50 uM): 93.01*; Cell viability of bVSMCs after seven days (MTT signal, relative to control) ([4]; 100 uM): 96.96; Toxicity to bVSMCs (MTT assay, in words) [4]: virtually non-toxic
COc1ccccc1Oc1c(NS(=O)(=O)c2ccc(C(C)(C)C)cc2)nc(-c2ncccn2)nc1OCCO [bosentan MH, Bosentan monohydrate]			do not inhibit calcification	91.59	99.82	97.16	84.90	79.36	83.25	73.65	64.97*	most toxic	no effect	slightly lower calcium levels	101.97	96.12	91.91*	93.05*	93.87*	97.20	Cell viability of bVSMCs after seven days (MTT signal, relative to control) ([4]; 50 uM): 103.69; Cell viability of bVSMCs after seven days (MTT signal, relative to control) ([4]; 100 uM): 85.05*; Toxicity to bVSMCs (MTT assay, in words) [4]: little toxicity
